pEC50: −log10 of the molar value. Counter-ions that a name gives are not always drawn.
Assays:
[1] = test system: extracellular 5-HT in nucleus accumbens; format: in vivo, rat; details: 6 mg/kg i.p.; for extracellular 5-HT after the first dose: first of 4 doses, nucleus accumbens dialysate; for persistent elevation of extracellular 5-HT for the duration of sampling: 4 doses every 2 h, 8 h sampling, % of basal
hSERT = hSERT (Homo sapiens, UniProt P31645); assay: cell-based; format: cell-based; details: for concentration at which maximal current was measured: bell-shaped concentration-response curve; for inwardly-directed current compared to 5-HT-induced current: raw current traces, reference 10 μM 5-HT
hSERT, sequence (P31645 whole entry): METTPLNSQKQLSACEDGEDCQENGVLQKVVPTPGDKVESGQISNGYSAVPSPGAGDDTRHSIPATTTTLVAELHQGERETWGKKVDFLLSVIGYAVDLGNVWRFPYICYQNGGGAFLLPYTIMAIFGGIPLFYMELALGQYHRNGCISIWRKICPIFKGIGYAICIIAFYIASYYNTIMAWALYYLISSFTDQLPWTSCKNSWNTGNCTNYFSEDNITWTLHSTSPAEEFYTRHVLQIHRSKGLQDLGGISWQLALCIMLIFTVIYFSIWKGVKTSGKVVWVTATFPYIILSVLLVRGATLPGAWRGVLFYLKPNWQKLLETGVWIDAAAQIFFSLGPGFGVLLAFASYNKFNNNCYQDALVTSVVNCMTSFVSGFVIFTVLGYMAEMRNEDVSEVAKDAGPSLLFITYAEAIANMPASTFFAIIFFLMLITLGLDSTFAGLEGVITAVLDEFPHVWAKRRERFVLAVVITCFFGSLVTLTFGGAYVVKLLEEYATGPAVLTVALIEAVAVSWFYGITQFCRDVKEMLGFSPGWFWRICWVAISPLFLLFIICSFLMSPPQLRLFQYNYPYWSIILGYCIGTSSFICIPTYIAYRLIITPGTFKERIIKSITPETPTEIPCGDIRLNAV

[2] = test system: [3H]dopamine release, rat caudate synaptosomes; assay: In vitro [3H]dopamine release from rat caudate synaptosomes; format: biochemical; details: tested at concentrations up to 10 μM (data not shown)
[3] = test system: extracellular dopamine in nucleus accumbens; assay: In vivo microdialysis in rat nucleus accumbens, dialysate dopamine; details: 6 mg/kg i.p., 4 doses; not different from saline in post hoc tests
SERT = SERT (Rattus norvegicus, UniProt P31652); assay: In vitro [3H]5-HT release from rat brain synaptosomes; format: biochemical
SERT, sequence (P31652 whole entry): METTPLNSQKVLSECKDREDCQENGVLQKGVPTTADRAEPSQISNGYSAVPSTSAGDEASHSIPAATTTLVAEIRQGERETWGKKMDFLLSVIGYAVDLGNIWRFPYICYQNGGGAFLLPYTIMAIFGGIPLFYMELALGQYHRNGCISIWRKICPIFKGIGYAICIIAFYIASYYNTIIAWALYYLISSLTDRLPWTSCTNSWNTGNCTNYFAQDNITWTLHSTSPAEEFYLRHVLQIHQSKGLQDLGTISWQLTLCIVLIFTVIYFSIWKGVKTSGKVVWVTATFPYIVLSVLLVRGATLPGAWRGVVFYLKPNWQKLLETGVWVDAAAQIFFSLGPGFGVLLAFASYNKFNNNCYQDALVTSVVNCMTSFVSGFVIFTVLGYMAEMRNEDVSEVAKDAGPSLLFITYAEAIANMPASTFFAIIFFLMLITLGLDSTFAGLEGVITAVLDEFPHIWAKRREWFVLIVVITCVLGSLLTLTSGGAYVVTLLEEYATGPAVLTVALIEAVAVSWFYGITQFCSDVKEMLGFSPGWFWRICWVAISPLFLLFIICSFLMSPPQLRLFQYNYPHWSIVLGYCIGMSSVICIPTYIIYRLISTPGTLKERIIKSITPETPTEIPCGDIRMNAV

Structure (SMILES) | extracellular 5-HT after the first dose [1] | pEC50 (hSERT) | concentration at which maximal current was measured (hSERT; hSERT-expressing oocytes) [µM] | inwardly-directed current compared to 5-HT-induced current (hSERT) | releasing [3H]dopamine [2] | dialysate dopamine [3] | persistent elevation of extracellular 5-HT for the duration of sampling [1] | Emax of 5-HT release (SERT) [%] | current magnitude relative to mCPP, TFMPP or MTA (hSERT; maximal currents, hSERT-expressing oocytes)
Cl.FC(F)(F)c1cccc(N2CCNCC2)c1 [TFMPP, 1-(3-trifluoromethylphenyl)piperazine hydrochloride] | about 1400 % of basal | 5.61 | 3 | about half the 5-HT-induced current | inactive | 80 % of basal |  |  | 
Cl.Cl.Clc1cccc(N2CCNCC2)c1 [mCPP, 1-(3-Chlorophenyl)piperazine dihydrochloride] | about 1000 % of basal | 5.71 | 3 | about half the 5-HT-induced current | inactive | 150 % of basal | about 500% |  | 
CCNC(C)Cc1cccc(C(F)(F)F)c1 (racemic) [fenfluramine, (±)-N-ethyl-1-[3-(trifluoromethyl)phenyl]propan-2-amine hydrochloride] | ~1200 % of basal |  |  |  |  | about 150 % of basal | 500-800% |  | 
CCN[C@@H](C)Cc1cccc(C(F)(F)F)c1 [d-fenfluramine, (+)-N-ethyl-1-[3-(trifluoromethyl)phenyl]propan-2-amine hydrochloride] | ~1200 % of basal |  |  |  | inactive |  |  |  | 
CSc1ccc(CC(C)N)cc1.CSc1ccc(C[C@@H](C)N)cc1 [MTA, 4-Methylthioamphetamine ((2R)-1-[4-(methylsulfanyl)phenyl]propan-2-amine)] |  |  | 3 | comparably small current |  |  |  |  | 
CC(N)Cc1cccc(C(F)(F)F)c1.Cl (single isomer, unassigned; (+)) [d-norfenfluramine, (+)-1-[3-(trifluoromethyl)phenyl]propan-2-amine hydrochloride] |  |  | 100 | almost as high as the 5-HT-induced current |  |  |  | 100 | up to 2 times

Reference: paper PMC3988539 (Neuropsychopharmacology : official publication of the …, 2013)
